Experimental data as given in article PMC8550792, “Evolution of kinase polypharmacology across HSP90 drug discovery” (Cell Chemical Biology, 2021).

Legend:
Assay in all cases: biochemical
Assay type in all cases: biochemical
382 unique human kinases [1] = target: T1, 382 unique human kinases (Homo sapiens, UniProt O00418); settings: kinase EEF2K, compound 10 uM; for remaining activity at 10 µM: read-out: % Enzyme Activity (relative to DMSO controls)
T1 construct: purchased Reaction Biology (HotSpot contract assay)
T1 sequence (O00418 1-725): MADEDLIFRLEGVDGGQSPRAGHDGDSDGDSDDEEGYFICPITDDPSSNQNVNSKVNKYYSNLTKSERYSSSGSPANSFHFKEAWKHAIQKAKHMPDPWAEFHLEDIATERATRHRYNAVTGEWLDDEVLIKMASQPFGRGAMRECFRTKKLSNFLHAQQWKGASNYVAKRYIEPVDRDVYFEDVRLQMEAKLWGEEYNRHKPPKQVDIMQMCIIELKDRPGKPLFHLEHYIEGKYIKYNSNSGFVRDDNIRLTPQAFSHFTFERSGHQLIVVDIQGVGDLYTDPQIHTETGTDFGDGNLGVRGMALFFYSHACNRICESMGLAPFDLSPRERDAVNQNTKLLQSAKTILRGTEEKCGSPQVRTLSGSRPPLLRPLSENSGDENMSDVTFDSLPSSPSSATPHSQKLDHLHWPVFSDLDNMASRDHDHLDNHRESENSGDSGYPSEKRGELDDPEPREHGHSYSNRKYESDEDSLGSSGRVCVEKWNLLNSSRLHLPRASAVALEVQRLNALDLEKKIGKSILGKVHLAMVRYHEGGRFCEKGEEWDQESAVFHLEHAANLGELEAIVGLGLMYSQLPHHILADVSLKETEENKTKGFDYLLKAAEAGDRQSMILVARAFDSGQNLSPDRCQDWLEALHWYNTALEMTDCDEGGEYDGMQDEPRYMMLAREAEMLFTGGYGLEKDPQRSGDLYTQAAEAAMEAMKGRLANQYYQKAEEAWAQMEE

382 unique human kinases [2] = target: T2, 382 unique human kinases (Homo sapiens, UniProt O00444); settings: PLK4/SAK, 10 uM; for remaining activity at 10 µM: read-out: % Enzyme Activity (relative to DMSO controls)
T2 construct: purchased Reaction Biology (HotSpot contract assay)
T2 sequence (O00444 1-970): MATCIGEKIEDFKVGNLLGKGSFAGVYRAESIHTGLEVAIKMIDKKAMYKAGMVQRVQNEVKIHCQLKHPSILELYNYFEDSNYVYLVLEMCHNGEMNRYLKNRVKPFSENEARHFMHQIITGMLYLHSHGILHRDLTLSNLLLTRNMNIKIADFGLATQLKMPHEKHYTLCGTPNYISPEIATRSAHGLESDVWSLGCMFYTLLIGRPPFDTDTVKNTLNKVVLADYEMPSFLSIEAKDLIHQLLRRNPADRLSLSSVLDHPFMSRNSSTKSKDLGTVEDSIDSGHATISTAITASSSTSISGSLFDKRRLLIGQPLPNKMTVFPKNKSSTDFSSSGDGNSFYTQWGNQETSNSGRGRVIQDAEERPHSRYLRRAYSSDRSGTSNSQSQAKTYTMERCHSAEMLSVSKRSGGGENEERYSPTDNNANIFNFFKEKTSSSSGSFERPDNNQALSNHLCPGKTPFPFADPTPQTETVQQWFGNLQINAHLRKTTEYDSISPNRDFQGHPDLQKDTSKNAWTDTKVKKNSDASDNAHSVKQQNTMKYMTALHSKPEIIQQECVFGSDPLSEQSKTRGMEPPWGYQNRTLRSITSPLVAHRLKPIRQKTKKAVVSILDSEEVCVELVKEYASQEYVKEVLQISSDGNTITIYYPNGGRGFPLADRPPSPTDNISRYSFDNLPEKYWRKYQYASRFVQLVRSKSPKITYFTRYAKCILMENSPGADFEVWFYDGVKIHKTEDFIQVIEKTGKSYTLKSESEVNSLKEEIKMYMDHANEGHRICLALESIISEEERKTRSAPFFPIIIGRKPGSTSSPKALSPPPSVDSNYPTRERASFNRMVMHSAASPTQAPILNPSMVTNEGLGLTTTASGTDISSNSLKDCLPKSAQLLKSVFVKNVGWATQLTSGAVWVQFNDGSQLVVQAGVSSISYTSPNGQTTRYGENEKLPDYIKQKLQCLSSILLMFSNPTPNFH

382 unique human kinases [3] = target: T3, 382 unique human kinases (Homo sapiens, UniProt P51617); settings: kinase IRAK1, compound 10 uM; for remaining activity at 10 µM: read-out: % Enzyme Activity (relative to DMSO controls)
T3 construct: purchased Reaction Biology (HotSpot contract assay)
T3 sequence (P51617 whole entry): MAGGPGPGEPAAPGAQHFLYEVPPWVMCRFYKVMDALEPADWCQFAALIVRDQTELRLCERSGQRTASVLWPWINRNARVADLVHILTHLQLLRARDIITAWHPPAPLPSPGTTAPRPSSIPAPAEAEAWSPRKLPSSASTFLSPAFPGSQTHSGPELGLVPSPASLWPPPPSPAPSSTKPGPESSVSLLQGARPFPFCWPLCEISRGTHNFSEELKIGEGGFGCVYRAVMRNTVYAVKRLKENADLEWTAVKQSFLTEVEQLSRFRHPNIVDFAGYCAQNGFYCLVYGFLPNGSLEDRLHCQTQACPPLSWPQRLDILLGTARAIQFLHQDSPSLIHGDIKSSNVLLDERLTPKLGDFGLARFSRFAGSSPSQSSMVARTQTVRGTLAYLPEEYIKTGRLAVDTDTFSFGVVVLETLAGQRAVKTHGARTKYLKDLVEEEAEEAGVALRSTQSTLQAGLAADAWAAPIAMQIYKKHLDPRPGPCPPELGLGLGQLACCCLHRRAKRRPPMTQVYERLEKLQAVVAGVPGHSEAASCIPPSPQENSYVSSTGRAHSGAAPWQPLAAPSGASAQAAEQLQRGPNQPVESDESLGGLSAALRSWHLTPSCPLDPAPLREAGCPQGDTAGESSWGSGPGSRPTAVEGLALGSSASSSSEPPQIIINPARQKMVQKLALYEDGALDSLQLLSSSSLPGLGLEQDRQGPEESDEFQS

382 unique human kinases [4] = target: T4, 382 unique human kinases (Homo sapiens, UniProt Q15303); settings: kinase ERBB4/HER4, compound 10 uM; for remaining activity at 10 µM: read-out: % Enzyme Activity (relative to DMSO controls)
T4 construct: purchased Reaction Biology (HotSpot contract assay)
T4 sequence (Q15303 26-1308): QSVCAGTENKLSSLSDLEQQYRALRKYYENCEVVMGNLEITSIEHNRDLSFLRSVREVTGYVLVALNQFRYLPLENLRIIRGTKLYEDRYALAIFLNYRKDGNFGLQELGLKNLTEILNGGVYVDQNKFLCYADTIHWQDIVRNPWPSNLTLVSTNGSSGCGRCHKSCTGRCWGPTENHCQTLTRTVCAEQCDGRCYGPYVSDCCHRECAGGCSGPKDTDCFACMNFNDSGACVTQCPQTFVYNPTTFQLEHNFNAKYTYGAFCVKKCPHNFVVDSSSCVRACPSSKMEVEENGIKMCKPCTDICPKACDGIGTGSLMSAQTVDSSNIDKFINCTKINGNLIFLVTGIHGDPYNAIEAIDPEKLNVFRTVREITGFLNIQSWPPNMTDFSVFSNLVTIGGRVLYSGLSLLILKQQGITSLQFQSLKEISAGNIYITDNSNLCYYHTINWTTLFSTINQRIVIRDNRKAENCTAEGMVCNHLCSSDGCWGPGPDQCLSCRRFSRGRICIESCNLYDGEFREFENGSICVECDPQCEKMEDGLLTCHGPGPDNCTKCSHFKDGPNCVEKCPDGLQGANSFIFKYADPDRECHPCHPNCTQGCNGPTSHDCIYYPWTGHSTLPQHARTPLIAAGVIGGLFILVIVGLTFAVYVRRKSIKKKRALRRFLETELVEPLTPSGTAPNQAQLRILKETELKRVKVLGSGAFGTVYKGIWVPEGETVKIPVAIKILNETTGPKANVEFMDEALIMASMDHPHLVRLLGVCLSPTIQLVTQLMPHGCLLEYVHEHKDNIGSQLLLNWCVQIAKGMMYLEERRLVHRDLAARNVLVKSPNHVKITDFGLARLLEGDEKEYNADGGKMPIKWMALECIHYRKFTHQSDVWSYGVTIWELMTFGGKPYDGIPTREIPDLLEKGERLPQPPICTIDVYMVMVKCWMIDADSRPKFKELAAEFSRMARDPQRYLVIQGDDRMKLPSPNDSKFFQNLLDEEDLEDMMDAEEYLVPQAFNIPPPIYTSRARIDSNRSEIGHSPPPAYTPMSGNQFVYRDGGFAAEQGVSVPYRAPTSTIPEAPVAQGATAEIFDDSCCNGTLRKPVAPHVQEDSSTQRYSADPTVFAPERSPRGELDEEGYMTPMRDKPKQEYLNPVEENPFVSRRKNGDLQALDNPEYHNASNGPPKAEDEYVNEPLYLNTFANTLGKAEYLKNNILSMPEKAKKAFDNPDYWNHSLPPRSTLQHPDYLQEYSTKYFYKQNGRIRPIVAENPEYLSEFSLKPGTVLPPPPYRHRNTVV

382 unique human kinases [5] = target: T5, 382 unique human kinases (Homo sapiens, UniProt Q7KZI7); settings: MARK2/PAR-1Ba, 10 uM; for remaining activity at 10 µM: read-out: % Enzyme Activity (relative to DMSO controls)
T5 construct: purchased Reaction Biology (HotSpot contract assay)
T5 sequence (Q7KZI7 whole entry): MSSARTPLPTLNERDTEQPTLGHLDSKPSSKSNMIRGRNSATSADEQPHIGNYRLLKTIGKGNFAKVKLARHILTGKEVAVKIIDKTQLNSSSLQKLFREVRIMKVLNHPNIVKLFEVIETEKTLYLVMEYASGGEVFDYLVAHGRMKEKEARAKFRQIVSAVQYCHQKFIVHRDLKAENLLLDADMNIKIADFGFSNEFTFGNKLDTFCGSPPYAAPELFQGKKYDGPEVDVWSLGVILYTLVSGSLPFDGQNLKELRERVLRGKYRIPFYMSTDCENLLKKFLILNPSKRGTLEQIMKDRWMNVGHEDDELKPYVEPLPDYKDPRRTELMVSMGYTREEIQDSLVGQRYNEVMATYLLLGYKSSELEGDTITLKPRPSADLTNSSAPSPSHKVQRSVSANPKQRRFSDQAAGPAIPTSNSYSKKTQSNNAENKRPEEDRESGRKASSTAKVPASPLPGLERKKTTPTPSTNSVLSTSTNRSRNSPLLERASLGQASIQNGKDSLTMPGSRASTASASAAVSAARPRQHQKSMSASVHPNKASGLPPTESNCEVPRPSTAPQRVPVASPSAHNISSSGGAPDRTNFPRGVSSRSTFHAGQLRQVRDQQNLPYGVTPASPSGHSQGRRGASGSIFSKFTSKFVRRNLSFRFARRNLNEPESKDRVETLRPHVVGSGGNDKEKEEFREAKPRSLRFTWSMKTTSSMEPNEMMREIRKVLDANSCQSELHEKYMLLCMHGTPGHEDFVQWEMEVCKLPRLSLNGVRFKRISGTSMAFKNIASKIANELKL

382 unique human kinases [6] = target: T6, 382 unique human kinases (Homo sapiens, UniProt Q9Y4K4); settings: kinase KHS/MAP4K5, compound 10 uM; for remaining activity at 10 µM: read-out: % Enzyme Activity (relative to DMSO controls)
T6 construct: purchased Reaction Biology (HotSpot contract assay)
T6 sequence (Q9Y4K4 whole entry): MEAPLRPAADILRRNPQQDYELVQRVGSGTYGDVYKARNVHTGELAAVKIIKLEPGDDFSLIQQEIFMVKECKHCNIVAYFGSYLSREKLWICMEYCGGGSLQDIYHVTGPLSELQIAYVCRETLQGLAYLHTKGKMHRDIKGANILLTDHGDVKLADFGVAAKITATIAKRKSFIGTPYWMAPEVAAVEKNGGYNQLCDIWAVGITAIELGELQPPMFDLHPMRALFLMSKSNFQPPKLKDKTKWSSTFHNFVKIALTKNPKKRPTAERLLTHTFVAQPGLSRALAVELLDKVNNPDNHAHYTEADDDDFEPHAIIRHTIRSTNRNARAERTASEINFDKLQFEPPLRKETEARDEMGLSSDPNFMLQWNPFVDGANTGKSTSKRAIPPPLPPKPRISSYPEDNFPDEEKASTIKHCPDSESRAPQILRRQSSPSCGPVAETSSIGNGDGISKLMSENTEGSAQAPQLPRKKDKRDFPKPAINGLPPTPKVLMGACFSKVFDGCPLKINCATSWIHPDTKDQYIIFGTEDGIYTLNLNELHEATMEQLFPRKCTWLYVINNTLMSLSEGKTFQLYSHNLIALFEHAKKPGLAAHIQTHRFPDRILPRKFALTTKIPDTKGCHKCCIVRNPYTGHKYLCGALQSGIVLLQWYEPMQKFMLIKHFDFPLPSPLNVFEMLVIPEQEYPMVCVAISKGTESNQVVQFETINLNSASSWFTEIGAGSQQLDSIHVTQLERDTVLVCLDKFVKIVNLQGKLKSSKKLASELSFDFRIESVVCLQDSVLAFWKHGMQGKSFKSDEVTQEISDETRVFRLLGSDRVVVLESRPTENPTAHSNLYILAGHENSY

382 unique human kinases [7] = target: T7, 382 unique human kinases (Homo sapiens, UniProt P07333); settings: FMS, [ATP] 100 µM, compound 10 uM; for remaining activity at 10 µM: read-out: % Enzyme Activity (relative to DMSO controls)
T7 construct: purchased Reaction Biology (HotSpot contract assay)

382 unique human kinases [8] = target: T8, 382 unique human kinases (Homo sapiens, UniProt P16234, D842V); settings: PDGFRa (D842V), [ATP] 1 µM, compound 10 uM; for remaining activity at 10 µM: read-out: % Enzyme Activity (relative to DMSO controls)
T8 construct: purchased Reaction Biology (HotSpot contract assay)
T8 sequence (P16234 24-1089 D842V): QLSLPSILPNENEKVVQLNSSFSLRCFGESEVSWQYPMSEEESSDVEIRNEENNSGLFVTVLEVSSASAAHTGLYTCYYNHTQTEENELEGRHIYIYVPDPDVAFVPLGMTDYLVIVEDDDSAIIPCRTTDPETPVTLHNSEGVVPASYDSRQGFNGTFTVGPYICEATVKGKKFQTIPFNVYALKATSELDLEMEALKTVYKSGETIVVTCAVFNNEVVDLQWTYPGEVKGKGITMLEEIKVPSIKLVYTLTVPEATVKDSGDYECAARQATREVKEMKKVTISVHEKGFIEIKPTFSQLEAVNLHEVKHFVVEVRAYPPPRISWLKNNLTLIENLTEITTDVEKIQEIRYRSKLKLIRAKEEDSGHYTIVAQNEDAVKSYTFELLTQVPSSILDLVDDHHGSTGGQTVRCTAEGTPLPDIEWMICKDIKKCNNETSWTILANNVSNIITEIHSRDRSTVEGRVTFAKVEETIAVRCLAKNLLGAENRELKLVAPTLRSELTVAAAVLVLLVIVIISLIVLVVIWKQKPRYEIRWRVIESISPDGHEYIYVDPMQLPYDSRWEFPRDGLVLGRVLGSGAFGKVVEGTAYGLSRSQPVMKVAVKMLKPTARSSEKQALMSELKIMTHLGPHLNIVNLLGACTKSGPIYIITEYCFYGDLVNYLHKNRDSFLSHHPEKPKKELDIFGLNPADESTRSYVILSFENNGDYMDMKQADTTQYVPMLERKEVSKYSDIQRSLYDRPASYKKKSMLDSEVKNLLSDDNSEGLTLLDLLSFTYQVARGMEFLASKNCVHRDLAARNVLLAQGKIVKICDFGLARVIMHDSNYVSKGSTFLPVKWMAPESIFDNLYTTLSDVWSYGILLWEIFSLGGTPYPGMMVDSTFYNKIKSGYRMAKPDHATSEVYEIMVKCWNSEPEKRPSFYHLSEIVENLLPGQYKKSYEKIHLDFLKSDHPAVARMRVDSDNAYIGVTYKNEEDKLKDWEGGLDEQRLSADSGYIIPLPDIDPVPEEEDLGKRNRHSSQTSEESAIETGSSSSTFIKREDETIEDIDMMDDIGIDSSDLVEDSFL

382 unique human kinases [9] = target: T9, 382 unique human kinases (Homo sapiens, UniProt P35626); settings: GRK3, 10 uM; for remaining activity at 10 µM: read-out: % Enzyme Activity (relative to DMSO controls)
T9 construct: purchased Reaction Biology (HotSpot contract assay)
T9 sequence (P35626 1-688): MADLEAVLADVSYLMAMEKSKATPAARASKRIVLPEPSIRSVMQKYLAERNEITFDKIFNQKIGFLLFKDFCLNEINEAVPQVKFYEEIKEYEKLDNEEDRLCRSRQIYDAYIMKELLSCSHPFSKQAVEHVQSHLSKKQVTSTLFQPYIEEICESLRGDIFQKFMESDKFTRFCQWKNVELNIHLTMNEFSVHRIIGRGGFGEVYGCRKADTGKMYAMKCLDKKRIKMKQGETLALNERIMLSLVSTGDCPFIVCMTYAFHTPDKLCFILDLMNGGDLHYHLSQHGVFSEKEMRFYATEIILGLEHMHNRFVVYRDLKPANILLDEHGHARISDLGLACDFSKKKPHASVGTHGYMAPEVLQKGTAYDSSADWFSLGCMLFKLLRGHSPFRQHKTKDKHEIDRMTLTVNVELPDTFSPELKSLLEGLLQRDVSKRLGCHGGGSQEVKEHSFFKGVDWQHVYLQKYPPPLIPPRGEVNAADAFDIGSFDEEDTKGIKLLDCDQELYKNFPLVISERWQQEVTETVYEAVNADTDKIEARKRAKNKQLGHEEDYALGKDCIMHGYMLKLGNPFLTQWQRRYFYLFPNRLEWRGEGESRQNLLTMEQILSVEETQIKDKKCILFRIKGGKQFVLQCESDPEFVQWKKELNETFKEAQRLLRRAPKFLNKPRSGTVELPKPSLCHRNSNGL

Row | Compound | remaining activity at 10 µM (382 unique human kinases [1]) | remaining activity at 10 µM (382 unique human kinases [2]) | remaining activity at 10 µM (382 unique human kinases [3]) | remaining activity at 10 µM (382 unique human kinases [4]) | remaining activity at 10 µM (382 unique human kinases [5]) | remaining activity at 10 µM (382 unique human kinases [6]) | remaining activity at 10 µM (382 unique human kinases [7]) | remaining activity at 10 µM (382 unique human kinases [8]) | remaining activity at 10 µM (382 unique human kinases [9]) | % Enzyme Activity (relative to DMSO controls) (382 unique human kinases [1]) | % Enzyme Activity (relative to DMSO controls) (382 unique human kinases [2]) | % Enzyme Activity (relative to DMSO controls) (382 unique human kinases [3]) | % Enzyme Activity (relative to DMSO controls) (382 unique human kinases [4]) | % Enzyme Activity (relative to DMSO controls) (382 unique human kinases [5]) | % Enzyme Activity (relative to DMSO controls) (382 unique human kinases [6]) | % Enzyme Activity (relative to DMSO controls) (382 unique human kinases [7]) | % Enzyme Activity (relative to DMSO controls) (382 unique human kinases [8]) | % Enzyme Activity (relative to DMSO controls) (382 unique human kinases [9])
1 | CC(C)c1cc(-c2n[nH]c(=O)n2-c2ccc3c(ccn3C)c2)c(O)cc1O [Ganetespib (STA9090)] | 89.2% | 78.2% | 102% | 88.8% | 75.7% | 80.6% |  |  |  |  |  |  |  |  |  |  |  | 
2 | CC(C)c1cc(-c2n[nH]c(=O)n2-c2ccc3c(ccn3C)c2)c(O)cc1O [Ganetespib] |  |  |  |  |  |  | 23.5% | 76.2% | 109% |  |  |  |  |  |  |  |  | 
3 | CCNC(=O)c1noc(-c2cc(C(C)C)c(O)cc2O)c1-c1ccc(CN2CCOCC2)cc1 [Luminespib (AUY-922)] | 105% | 89.6% | 105% | 92.8% | 104% | 93.5% |  |  |  | 102.88% | 86.84% | 104.17% | 92.70% | 102.26% | 91.62% |  |  | 
4 | CCNC(=O)c1noc(-c2cc(C(C)C)c(O)cc2O)c1-c1ccc(CN2CCOCC2)cc1 [Luminespib] |  |  |  |  |  |  | 26.4% | 59.9% | 97.9% |  |  |  |  |  |  | 26.15% | 50.60% | 96.02%
